Test results as given in patent US12605407B2, “Methods to induce terminal differentiation in stem cells by interfering with DNA replication, methods of inducing pancreatic differentiation, and differentiated cells obtained thereof” (priority 2018, dated 2026).

What was measured:
pancreatic progenitors = experiment: Beta cell differentiation from human pluripotent stem cells, flow cytometry of C-peptide and NKX6.1 positive cells; format: cell-based
Description: (§1) Beta cells differentiated from human pluripotent stem cell lines as described in Example 2 (Sui et al., 2018b). Indicated compounds that function as cell cycle inhibitors were added individually from day 15 to day 27 with concentration listed below:
The DNA replication inhibitors used in this study: 0.1 μM, 0.5 μM and 1 μM Aphidicolin (A0781, Sigma-Aldrich); 2.5 μM Cisplatin (232120, EMD Millipore); 100 μM Ciprofloxacin (S2027, Selleck Chemicals); 10 μM Pyridostatin (S7444, Selleck Chemicals); 10 μM E2F Inhibitor (324461, EMD Millipore); 0.05 μM A485 (6387, Tocris); 2 μM RL5a (SML2187, Sigma-Aldrich); and 2 μM Etoposide (E55500, Research Products International). Indicated compounds were added individually from day 15 to day 27 with indicated concentration.
The beta cell clusters were dissociated using TrypLE™ Express into single cells. Cells were fixed with 4% PFA for 10 min and followed by permeabilization at −20° C. with cold methanol for 10 min. Primary antibodies were added at a dilution of 1:100 in autoMACs Rinsing Solution (Cat. No. 130-091-222, Miltenyi Biotec) containing 0.5% BSA at 4° C. for 1 hour. Secondary antibodies were added at a dilution of 1:500 at room temperature for 1 hour. The cells were filtered with BD Falcon 12×75 mm tube with cell strainer cap (Cat. No. 352235, BD) and subsequently analyzed by flow cytometer. Data were analyzed using Flowjo software. Negative controls were performed by only adding secondary antibodies.
Aphidicolin (APH), a DNA polymerase inhibitor, was used to inhibit DNA replication (Koundrioukoff et al., 2013). […] The insulin expressing cells were evenly distributed in the islet-like clusters with high percentage indicated by the expression of GFP, whereas some parts of the clusters in control remained GFP negative (FIG. 1D).

[1] = tested on: iPSC lines 1018E and 1023A; experiment: Beta cell differentiation in iPSC lines with different differentiation potentials, C-peptide positive cells; format: cell-based, human
Description: Human pluripotent stem cells were cultured and maintained in feeder-free plates with stemflex medium as described. Three cell lines were involved in this study as shown in Table 2: MEL1 is human embryonic stem cell line; 1023A is a human induced pluripotent stem cell line reprogrammed from a skin fibroblast biopsied of a healthy control; and 1018E is a human induced pluripotent stem cell line reprogrammed from a skin fibroblast biopsied from a type 1 diabetes patient. All human subjects research was reviewed and approved by the Columbia University Institutional Review Board, and the Columbia University Embryonic Stem Cell Committee.
as §1
The beta cell clusters were dissociated using TrypLE™ Express into single cells. Cells were fixed with 4% PFA for 10 min and followed by permeabilization at −20° C. with cold methanol for 10 min. […] The cells were filtered with BD Falcon 12×75 mm tube with cell strainer cap (Cat. No. 352235, BD) and subsequently analyzed by flow cytometer. Data were analyzed using Flowjo software. […]

[2] = tested on: pancreatic progenitor cells; experiment: TUNEL staining for apoptosis and absolute cell numbers; format: cell-based
Excerpt: To determine whether the increased percentage of beta cells was due to cell death of proliferating progenitors or due to increased differentiation from pancreatic progenitor cells, absolute cell numbers and cell death were quantified. Cells at day 17 and day 27 with and without APH treatment were stained for TUNEL. […] Therefore, the increased percentage of C-peptide positive cells was due to the increased differentiation, not the elimination of non-C-peptide positive cells from day 15 to day 20. After day 20, APH maintained the purity of beta cell clusters by preventing the growth of non-beta cells.

[3] = tested on: stem cell derived beta cells; experiment: Gene expression by quantitative realtime PCR in sorted insulin-GFP positive cells; format: cell-based, human
Excerpt: Total RNA was extracted from the cells at beta cell stage (d27) from different conditions using a RNeasy Mini Kit (Cat. No. 74106, QIAGEN). The total RNA was reverse transcripted into cDNA using iScript™ Reverse Transcription Supermix (Cat. No. 170-8841, Bio-Rad), and the cDNA were sequentially used as template with SsoFast™ EvaGreen® Supermix (Cat. No. 172-5202, Bio-Rad) for quantitative realtime PCR.
By the end of day 27, 30% of control cells were in cell cycle through G1 to M phase indicated by the expression of KI67 (a proliferation marker expressed in the cells within cell cycle) and amount of DNA content (FIG. 3A). […] The cell cycle gene expression in insulin expressing cells was also examined.
Insulin positive cells were isolated based on GFP expression and the expressions of genes related to the maturation of beta cells including PDX1, NKX6.1, MAFA and insulin were evaluated (FIG. 6A). […] In addition, the C-peptide secretion was increased 2-6-fold, with an average of 3-fold, in response to high levels of glucose (FIG. 6D).

STZ-treated mice = experiment: Protection from diabetes after ablation of mouse beta cells by streptozotocin, glucose tolerance test; format: in vivo
Description: The human C-peptide levels in mouse serum were measured every two weeks in the fed state. Intraperitoneal glucose tolerance test was performed by fasting overnight and injecting 2 g/kg D-glucose solution at 2 weeks after mouse beta cells were ablated with one high dose (150 mg/kg) Streptozocin (Cat. No. S0130-1G, Sigma-Aldrich). Blood was collected in heparin-coated tube at fed state, fasting and 30 min after glucose injection. Plasma were collected by centrifuging tubes at 2000 g for 15 minutes at 4° C. The supernatants were collected for C-peptide and insulin detection with Mercodia M-Plex™ ARRAY Chemiluminescent Mercodia Beta Kit. Blood glucose levels was measured at fed state, fasting and every 30 minutes after glucose injection for 2 hours.
The ability of APH treated cells to protect mice from diabetes was determined after eliminating endogenous mouse beta cells by streptozotocin (STZ). STZ ablates mouse beta cells but is not toxic to human beta cells at the concentrations used. After STZ treatment, the blood glucose levels were monitored and grafted beta cells were challenged with high glucose to check their function. The blood glucose levels remained in the normal range over time in 3 out of 4 mice (FIG. 7E). Mice were tolerant to glucose and normalized blood glucose levels within 15 min of glucose injection (FIG. 7F). The secretion of human C-peptide and insulin decreased after fasting and increased after glucose injection (FIG. 7G).

[4] = APH added d15-d20, d20-d27 or d15-d27, read at day 27, versus control
[5] = GFP positive cells from APH treated clusters versus GFP positive cells in control clusters

## C[C@@]1(CO)[C@H](O)CC[C@@]2(C)[C@H]1CC[C@H]1C[C@@H]3C[C@@]12CC[C@]3(O)CO [APH, Aphidicolin]
Pancreatic progenitors
  variability of beta cell differentiation: reduced
Pancreatic progenitors; 1 μM, d15-d27, compared with 0.1 μM and 0.5 μM
  percentage of c-peptide and NKX6.1 positive cells, comparison of concentrations: highest percentage
Pancreatic progenitors; [4]
  proportion of C-peptide and NKX6.1 dual positive cells: increased
  proportion of C-peptide positive cells: increased
Pancreatic progenitors; APH added from day 15 to day 27
  differentiation toward C-peptide and NKX6.1 positive cells, comparison of treatment windows: most effective
Pancreatic progenitors; all n=12 independent differentiation experiments
  C-peptide positive cells in cultures: more than 50%
Pancreatic progenitors; day 27
  effectiveness to induce differentiation of pancreatic progenitors to C-peptide positive cells, comparison within panel: most effective
[1]; both cell lines 1018E and 1023A, after APH treatment versus control
  percentage of C-peptide positive cells: significantly upregulated
[1]; cell line 1018E (differentiates poorly), after APH treatment
  average percentage of C-peptide positive cells: 38%
[2]; day 17 and day 27, early and late stage of APH treatment
  cell apoptosis, percentage of TUNEL positive cells: No significant increase
[2]; day 20
  number of total cells compared to control group: comparable
  percentage of C-peptide positive cells compared to control: significantly increased
[3]; [5]
  expression of MAFA at transcription level: significantly upregulated
  expression of NKX6.1 at transcription level: significantly upregulated
  expression of PDX1 at transcription level: significantly upregulated
  expression of insulin at transcription level: significantly upregulated
[3]; insulin positive cells
  expression of CDK4: downregulated
  expression of Cyclin D1: downregulated
  expression of P21: upregulated
STZ-treated mice; after STZ treatment, mice transplanted with APH treated cells
  mice whose blood glucose levels remained in the normal range over time: 3 out of 4
STZ-treated mice; after fasting
  secretion of human C-peptide and insulin: decreased
STZ-treated mice; after glucose injection
  secretion of human C-peptide and insulin: increased
STZ-treated mice; glucose tolerance test, STZ-treated mice
  time to normalized blood glucose levels after glucose injection: ≤ 15 min
